Non-standard residues stand in square brackets, D forms with d. Residues, ends and D or L forms follow the SMILES beside them. *: point of attachment. sY = N[C@@H](Cc1ccc(OS(=O)(=O)O)cc1)C(=O)O; Cbz = O=C(OCc1ccccc1)*
What was measured:
CCK = conditions: recently reported, J. M. Howard et al.; cited from earlier work
proteases = conditions: limits duration of activity; cited from earlier work
CCK receptor (pancreas) = biological target: T1, CCK receptor (pancreas) (Rattus norvegicus, UniProt P30551); test: CCK Receptor Binding (Pancreas), 125I-CCK-33; set-up: species or system rat (male Sprague-Dawley); conditions: for IC50: rat pancreas membranes, 125I-CCK-33, 37° C., 30 minutes; for effect on the 125I-CCK receptor binding assay: added protease inhibitors
T1 construct: The whole pancreas was dissected free of fat tissue and was homogenized; from tissue; host or cells: rat pancreas membranes (male Sprague-Dawley)
T1 sequence (P30551 1-444): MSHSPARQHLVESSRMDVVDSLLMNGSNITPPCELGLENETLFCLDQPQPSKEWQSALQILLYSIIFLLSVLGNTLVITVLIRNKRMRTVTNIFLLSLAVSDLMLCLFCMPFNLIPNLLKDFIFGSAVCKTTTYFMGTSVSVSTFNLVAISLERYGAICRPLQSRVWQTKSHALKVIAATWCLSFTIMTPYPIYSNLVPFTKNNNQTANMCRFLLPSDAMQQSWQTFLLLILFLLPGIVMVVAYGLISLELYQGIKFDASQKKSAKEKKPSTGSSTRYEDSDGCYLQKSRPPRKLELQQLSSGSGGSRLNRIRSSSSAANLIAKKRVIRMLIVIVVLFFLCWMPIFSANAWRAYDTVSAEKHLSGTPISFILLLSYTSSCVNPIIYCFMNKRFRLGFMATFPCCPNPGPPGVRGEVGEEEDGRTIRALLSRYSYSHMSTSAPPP
Method: 1. CCK Receptor BindinG (Pancreas)
CCK-33 was radiolabeled with ^125 I-Bolton Hunter reagent (2000 Ci/mmole) as described by Sankara et al. (J. Biol. Chem. 254: 9349-9351, 1979). Receptor bindinG was performed according to Innis and Snyder (Proc. Natl. Acad. Sci. 77: 6917-6921, 1980) with the minor modification of adding the additional protease inhibitors, phenylmethane sulfonyl fluoride and o-phenanthroline. The latter two compounds have no effect on the ^125 I-CCK receptor bindinG assay.
Male Sprague-Dawley rats (200-350 g) were sacrificed by decapitation. The whole pancreas was dissected free of fat tissue and was homogenized in 20 volumes of ice-cold 50 mM, Tris HCl (pH 7.7 at 25° C.) with a Brinkmann Polytron PT 10. The homogenates were centrifuged at 48,000 g for 10 min. Pellets were resuspended in Tris Buffer, centrifuged as above and resuspended in 200 volumes of binding assay buffer (50 mM Tris HCl, pH 7.7 at 25° C., 5 mM dithiothrietol, 0.1 mM bacitracin, 1.2 mM phenylmethane sulfonyl fluoride and 0.5 mM o-phenanthroline). For the binding assay, 25 μl of buffer (for total binding) or unlabeled CCK-8 sulfate to give a final concentration of 1 μM (for nonspecific binding) or the compounds of Formula I (for determination of inhibition of ^125 I CCK binding) and 25 μl of ^125 I-CCK 33 (30,000-40,000 cpm) were added to 450 μl of the membrane suspensions in microfuge tubes. All assays were run in duplicate or triplicate. The reaction mixtures were incubated at 37° C. for 30 minutes and centrifuged in a Beckman Microfuge (4 minutes) immediately after adding 1 ml of ice-cold incubation buffer. The supernatant was aspirated and discarded, pellets were counted with a Beckman gamma 5000. For Scatchard analysis (Ann. N.Y. Acad. Sci. 51: 660, 1949), ^125 I CCK 33 was progressively diluted with increasing concentrations of CCK 33.
1. Effect of The Compounds of Formula I on ^125 I-CCK-33 receptor binding
The preferred compounds of Formula I are those which inhibited specific ^125 I-CCK-33 binding in a concentration dependent manner.
A Ki value (dissociation constant of inhibitor) of the compounds of Formula I was estimated.

[1] = biological target: T2, gastrin receptor (gastric glands) (Cavia porcellus, UniProt H0VZC5); test: Gastrin Receptor Binding in Guinea Pig Gastric Glands, 125I-gastrin; set-up: species or system guinea pig (male Hartley); conditions: 25° C., 30 minutes
T2 construct: from tissue; host or cells: guinea pig gastric mucosal glands (male Hartley)
T2 sequence (H0VZC5 1-426): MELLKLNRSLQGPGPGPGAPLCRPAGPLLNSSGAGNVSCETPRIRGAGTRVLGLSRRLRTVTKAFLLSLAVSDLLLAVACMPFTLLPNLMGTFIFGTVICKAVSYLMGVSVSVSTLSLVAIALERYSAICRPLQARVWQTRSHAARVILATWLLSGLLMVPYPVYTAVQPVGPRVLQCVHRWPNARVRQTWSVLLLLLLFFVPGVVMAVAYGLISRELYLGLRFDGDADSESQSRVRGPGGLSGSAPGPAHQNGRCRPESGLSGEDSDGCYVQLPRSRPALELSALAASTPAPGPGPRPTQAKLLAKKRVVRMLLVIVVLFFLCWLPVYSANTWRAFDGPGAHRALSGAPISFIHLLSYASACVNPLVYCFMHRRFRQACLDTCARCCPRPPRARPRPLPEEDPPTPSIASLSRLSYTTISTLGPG
Method: Gastrin antagonist activity of compounds of Formula I was determined using the following assay.
Gastrin Receptor Binding in Guinea Pig Gastric Glands Preparation of guinea pig gastric mucosal glands
Guinea pig gastric mucosal glands were prepared by the procedure of Berglingh and Obrink Acta Physiol. Scand. 96: 150 (1976) with a slight modification according to Praissman et al. C. J. Receptor Res. 3: (1983). Gastric mucosa from guinea pigs ( 300-500 g body weight, male Hartley) were washed thoroughly and minced with fine scissors in standard buffer consisting of the following: 130 mM NaCl, 12 mM NaHCo3, 3 mM NaH2 PO4, 3 mM Na2 HPO4, 3 mM K2 HPO4, 2 mM MgSO4, 1 mM CaCl2, 5 mM glucose and 4 mM L-glutamine, 25 mM HEPES at pH 7.4. The minced tissues were washed and then incubated in a 37° C. shaker bath for 40 minutes with the buffer containing 0.1% collagenase and 0.1% BSA and bubbled with 95% o2 and 5% CO2. The tissues were passed twice through a 5 ml glass syringe to liberate the gastric glands, and then filtered through 200 mesh nylon. The filtered glands were centrifuged at 270 g for 5 minutes and washed twice by resuspension and centrifugation.
The washed guinea pig gastric glands prepared as above were resuspended in 25 ml of standard buffer containing 0.25 mg/ml of bacitracin. For binding studies, to 220 μl of gastric glands in triplicate tubes, 10 μl of buffer (for total binding) or gastrin (1 μM final concentration, for nonspecific binding) or test compound and 10 μl of ^125 I-gastrin (NEN, 2200 Ci/mmole, 25 pM final) or ^3 H pentagastrin (NEN 22 Ci/mmole, 1 nM final) were added. The tubes were aerated with 95% O2 and 5% CO2 and capped. The reaction mixtures after incubation at 25° C. for 30 minutes were filtered under reduced pressure on glass G/F B filters (Whatman) and immediately washed further with 4×4 ml of standard buffer containing 0.1% BSA. The radioactivity on the filters was measured using a Beckman gamma 5500 for ^125 I-gastrin or liquid scintillation counting for ^3 H-pentagastrin.

[2] = biological target: T3, CCK receptor (brain, cerebral cortex) (Cavia porcellus, UniProt H0VZC5); test: CCK Receptor Binding (Brain), 125I-CCK-33; set-up: species or system guinea pig (male Hartley); conditions: guinea pig cerebral cortex, 25° C., 2 hours
T3 construct: Cerebral cortex was dissected and used as a receptor source; from tissue; host or cells: guinea pig cerebral cortex membranes (male Hartley)
T3 sequence (H0VZC5 1-426): T2 sequence (H0VZC5 1-426)
Method: 2. CCK Receptor Binding (Brain)
CCK 33 was radiolabeled and the binding was performed according to the description for the pancreas method with modifications according to Saito et al., J. Neurochem. 37:483-490, 1981.
Male Hartley guinea pigs (300-500 g) were sacrificed by decapitation and the brains were removed and placed in ice-cold 50 mM, Tris HCl plus 7.58 g/1 Trizma-7.4 (pH 7.4 at 25° C.). Cerebral cortex was dissected and used as a receptor source. Each gram of fresh guinea pig brain tissue was homogenized in 10 ml of Tris/Trizma buffer with a Brinkman polytron PT-10. The homogenates were centrifuged at 42,000 g for 15 minutes. Pellets were resuspended in Tris Buffer, centrifuged as above and resuspended in 200 volumes of binding assay buffer (10 mM N-2 -hydroxyethyl-piperazine-N'-2-ethane sulfonic acid (HEPES), 5 mM MgCl2, 0.25 mg/ml bacitracin, 1 mM ethylene glycol-bis-(β-aminoethylether-N,N'-tetraacetic acid) (EGTA), and 0.4% bovine serum albumin (BSA)). For the binding assay, 25 μl of buffer (for total binding) or unlabeled CCK-8 sulfate to give a final concentration of 1 μm (for nonspecific binding) or the compounds of Formula I (for determination of inhibition of ^125 I CCK binding) and 25 μl of ^125 I-CCK-33 (30,000-40,000 cpm) were added to 450 μl of the membrane suspensions in microfuge tubes. All assays were run in duplicate or triplicate. The reaction mixtures were incubated at 25° C. for 2 hours and centrifuged in a Beckman Microfuge (4 minutes) immediately after adding 1 ml of ice cold incubation buffer. The supernatant was aspirated and discarded, pellets were counted with a Beckman gamma 5000.

| SMILES | IC50 (CCK receptor (pancreas)) | IC50 [1] | IC50 [2] | other results |
| --- | --- | --- | --- | --- |
| CSCC[C@H](NC(=O)[C@H](Cc1ccc(OS(=O)(=O)O)cc1)NC(=O)OCc1ccccc1)C(=O)NCC(=O)N[C@@H](Cc1c[nH]c2ccccc12)C(=O)N[C@@H](CCSC)C(=O)N[C@@H](CC(=O)O)C(N)=O [Cbz-Tyr(SO3 H)-Met-Gly-Trp-Met-Asp-NH2] (Cbz-[sY]MGWMD-NH2) | – | – | – | CCK agonist/antagonist character (CCK): partial agonist; degradation by proteases (proteases): liable to degradation by proteases |
| Cn1c(C(=O)Nc2cc3c(cn2)[nH]c2ccccc23)cc2ccccc21 [Example 6, N-9H-Pyrido(3,4-b)indol-3-yl-1-methyl-1H-indole-2-carboxamide] | 0.71 µM | > 100 µM | > 100 µM | – |
| O=C(Cc1c[nH]c2ccccc12)Nc1cc2c(cn1)[nH]c1ccccc12 [Example 7, N-9H-Pyrido(3,4-b)indol-3-yl-1H-indole 3-acetamide] | 0.024 µM | – | – | – |
| O=C(CCc1ccccc1)Nc1cc2c(cn1)[nH]c1ccccc12 [Example 10, N-9H-Pyrido(3,4-b)indol-3-yl benzene Propanamide] | 0.33 µM | – | – | – |
| c1cnc2c(c1)ccc1cccnc12 [o-phenanthroline, reference compound] | – | – | – | effect on the 125I-CCK receptor binding assay (CCK receptor (pancreas)): no effect |
| O=S(=O)(F)Cc1ccccc1 [phenylmethane sulfonyl fluoride, reference compound] | – | – | – | effect on the 125I-CCK receptor binding assay (CCK receptor (pancreas)): no effect |

Further lines, with some results ahead:

| IC50 (CCK receptor (pancreas)) | IC50 [1] | IC50 [2] | SMILES | other results |
| --- | --- | --- | --- | --- |
| > 100 µM | > 100 µM | > 100 µM | Nc1cc2c(cn1)[nH]c1ccccc12 [Example 2, 3-Amino-9H-pyrido(3,4-b)indole] | – |
| 3.5 µM | – | – | O=C(Nc1cc2c(cn1)[nH]c1ccccc12)c1ccc(Cl)cc1 [Example 3, 4-Chloro-N-9H-pyrido(3.4-b)indol-3-yl-benzamide] | – |
| 0.085 µM | – | – | O=C(Nc1ccc(Cl)cc1)Nc1cc2c(cn1)[nH]c1ccccc12 [Example 4, N-(4-Chlorophenyl)-N^1 9-H-pyrido(3,4-b)indol-3-yl-urea] | – |
| 9.8 µM | > 100 µM | ~130 µM | O=C(Nc1cc2c(cn1)[nH]c1ccccc12)c1cccs1 [Example 5, N-9H-Pyrido(3,4-b)indol-3-yl 2 thiophene Carboxamide] | – |
| 7.1 µM | > 100 µM | 223 µM | O=C(Nc1cc2c(cn1)[nH]c1ccccc12)c1ccccc1 [Example 8, N-9H-Pyrido(3,4-b)indol-3-yl benzamide] | – |
| 0.04 µM | 14 µM | 34 µM | O=C(Cc1ccccc1)Nc1cc2c(cn1)[nH]c1ccccc12 [Example 9, N-9H-Pyrido(3,4-b)indol-3-yl benzene Acetamide] | – |

Reference: patent US5223509A, “β-carbolines as cholecystokinin and gastrin antagonists” (priority 1992, dated 1993)
